From PubChem BioAssay (NCI)
Several values for one entry are separate records, joined by “and”; a condition that tells them apart may be missing. Equal entries are not always repeated.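 The compound was tested at five concentrations on cells cultured in 96-well plates, with a 48-hour exposure period. At the GI50, growth is halved. TGI denotes the concentration required for complete inhibition of growth.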

Legend:
Test in all cases: NCI tumour cell line growth inhibition, 48 h
UACC-257 melanoma = test system: UACC-257 melanoma
SR leukemia = test system: SR leukemia
TK-10 renal = test system: TK-10 renal
OVCAR-8 ovarian = test system: OVCAR-8 ovarian
HCT-15 colon = test system: HCT-15 colon
UACC-62 melanoma = test system: UACC-62 melanoma
A498 renal = test system: A498 renal
EKVX NSCLC = test system: EKVX NSCLC
NCI-H460 lung = test system: NCI-H460 lung
OVCAR-3 ovarian = test system: OVCAR-3 ovarian

Compound | TGI (UACC-257 melanoma) | TGI (SR leukemia) [µM] | TGI (TK-10 renal) [µM] | TGI (OVCAR-8 ovarian) [µM] | TGI (HCT-15 colon) | TGI (UACC-62 melanoma) [µM] | TGI (A498 renal) [µM] | TGI (EKVX NSCLC) | TGI (NCI-H460 lung) | TGI (OVCAR-3 ovarian) [µM] | GI50 (UACC-257 melanoma) [µM] | GI50 (SR leukemia) [µM] | GI50 (TK-10 renal) [µM] | GI50 (OVCAR-8 ovarian) [µM] | GI50 (HCT-15 colon) [µM] | GI50 (UACC-62 melanoma) [µM] | GI50 (A498 renal) [µM] | GI50 (EKVX NSCLC) [µM] | GI50 (NCI-H460 lung) [µM] | GI50 (OVCAR-3 ovarian) [µM]
c1ccc(C2=NOC3C4CCC(C4)C23)cc1 (stereo not drawn) | > 100 µM | > 100 | > 100 | > 100 | > 100 µM | > 100 | > 100 | > 100 µM | > 100 µM | > 100 |  |  |  |  |  |  |  |  |  | 
Cc1ccccc1NC(=O)/C(=N\NC(N)=S)C(C#N)c1ccccc1 (stereo not drawn) | > 100 µM | > 100 | > 100 | > 100 | > 100 µM | > 100 | > 100 | > 100 µM | > 100 µM | > 100 |  |  |  |  |  |  |  |  |  | 
Cn1[nH]cc2ccc3nc4ccccc4c(=O)c3c21 | > 74 µM | > 100 | 72.2 | > 94.9 | 97.4 µM | 26.6 | 67.7 | > 100 µM | > 89.5 µM | > 100 |  |  |  |  |  |  |  |  |  | 
C=CCn1c2ccccc2c2c3c(c4c5ccccc5n(CC=C)c4c21)C(=O)N(O)C3=O | 54.6 µM | 5.67 | 35.7 | 28.3 | 17 µM | 10.5 | 9.48 | 30.6 µM | 10.7 µM | 8.07 | 13.5 | 0.363 | 6.16 | 4.41 | 3.18 | 1.74 | 2.55 | 6.34 | 2.78 | 2.32
NS(=O)(=O)c1ccc(N=Nc2ccc[nH]c2=O)cc1 | > 100 µM | > 100 | > 100 | > 100 | > 100 µM | > 100 | > 100 | > 100 µM | > 100 µM | > 100 |  |  |  |  |  |  |  |  |  | 
COc1cccc2c1C(=O)c1c(O)c3c(c(O)c1C2=O)C[C@@](O)(C(=O)CO)CC3OC1CC(N)C(OC2CCCCO2)C(C)O1 (stereo partly drawn) | 0.455 µM and 3.42 µM |  |  |  | 2.36 µM and 13.3 µM |  | 1.16 | 1.02 µM and 7.26 µM | 1.08 µM and 5.09 µM |  | 0.129 | < 0.001 | 0.0368 | 0.018 | 0.034 | 0.0205 |  | 0.156 |  | 0.0709
CN1CCC2(CC1)N=C(SCC(=O)Nc1cnc3ccccc3c1)C(c1ccc(Br)cc1)=N2 | 3.31 µM | 5.29 | 4.49 | 5.54 | 3.76 µM | 3.21 | 14.9 | 10.2 µM | 4.28 µM | 12 | 1.79 | 2.07 | 1.99 | 2.33 | 1.86 | 1.71 | 3.96 | 2.51 | 2.03 | 3.29
N#C/C(=C\c1cc(O)c(O)c(O)c1)C(N)=O | > 100 µM | > 92.3 | > 100 | > 100 | > 100 µM | > 100 | > 100 | > 100 µM | > 100 µM | > 100 |  |  |  |  |  |  |  |  |  | 
CC1=CC(=O)N(c2cccc3c(N4C(=O)C=C(C)C4=O)cccc23)C1=O | 25 µM | 5.22 | 7.83 | 16.5 | 10.2 µM | 20.5 | 56.5 | 33.5 µM | 47.7 µM | 5.9 | 3.97 | 1.56 | 3.1 | 3.36 | 2.67 | 7.68 | 26.6 | 15.6 | 19.5 | 1.54
O=C(Oc1ccccc1)N(c1ccccc1)c1ccccc1 | 83 µM | > 100 | > 100 | > 100 | > 100 µM | > 100 | 62.7 | > 100 µM | 89.2 µM | > 100 | 26.4 | 29 | 37.1 | 31.8 | 31.1 | 22.3 | 10.4 | 18.7 | 26.4 | 23.7
COc1ccc2c(c1)C(=Nc1ccc(F)c(Cl)c1)c1c-2c(Nc2ccc(F)c(Cl)c2)nc2ccccc12 | > 100 µM | 0.0862 | > 80 | > 58.5 | > 100 µM | > 70.5 | 86.8 | > 100 µM | > 100 µM | > 100 | > 60.6 | 0.0122 | 34.5 | 22.6 | > 71.3 | 22.3 | 28.1 | 89.2 | > 100 | 42.7
CC(=O)OCC1OC(n2cccnc2=O)C(OC(C)=O)C1OC(C)=O (stereo not drawn) | > 100 µM | > 100 | > 100 | > 100 | > 100 µM | > 100 | > 100 | > 100 µM | > 100 µM | > 100 |  |  |  |  |  |  |  |  |  | 
O=C1C=C(NCCO)c2nccc3c2c1nc1ccccc13 | > 100 µM | > 100 | 60.8 | > 100 | > 100 µM | 31 | > 100 | 92.2 µM | 40.9 µM | 52.6 | 32.2 | 6.76 | 18.7 | 40 | 18.6 | 13.4 | 38.2 | 26.5 | 6.04 | 18.6
COc1ccc(Oc2nc3cc(N)cc(N)c3nc2-c2ccccc2)cc1 | > 100 µM | > 100 | > 100 | > 100 | > 100 µM | > 100 | > 100 | 63.1 µM | > 100 µM | 72.7 | > 100 | 18.5 | 53.5 | 32.3 | 52.1 | 63.5 | 49.3 | 24.7 | 30.6 | 14.9
Cc1ccc(N(C=O)c2c([N+](=O)[O-])cc([N+](=O)[O-])c3c2=[N+]([O-])CN=3)cc1 | 58 µM | > 100 | 78.7 | > 100 | 34.8 µM | 29.8 | > 100 | > 100 µM | > 100 µM | 73.6 |  |  |  |  |  |  |  |  |  | 
